Like-named read-outs stand apart in the source and are kept apart here.
Molecular target: STING (Homo sapiens, UniProt Q86WV6)
Assay: STING antagonist activity, cell-based ISG54 promoter-reporter luciferase measurement of IRF activity (THP-1 dual / RAW-ISG cells)
Conditions: Antagonist Activity of Exemplary Compounds, cell line and agonist not given
Protocol: THP-1 dual cells (InvivoGen) were cultured under 5% CO2 at 37° C. in RPMI containing 10% fetal bovine serum (FBS), 100 IU mL-1 penicillin and 100 μg mL-1 streptomycin. RAW-ISG cells (InvivoGen) were cultured under 5% CO2 at 37° C. in DMEM containing 10% fetal bovine serum (FBS), 100 IU mL-1 penicillin and 100 μg mL-1 streptomycin. THP-1 dual cells were seeded into the 96 well assay plate on the day of assay whereas RAW cells were seeded into the 96 well assay plate 18 hours before the assay.
(§1) 50,000 cells seeded in a 96-well flat bottom white assay plate were treated with different concentrations (10 uM to 0.01 uM) of compounds for 1 h followed by STING induction with either 30 nM SB 11285 or 10 ug/mL 2′-3′ cGAMP. The cells were then incubated for 20 hours @ 37° C. in CO2 incubator before measuring IRF activation by using Quanti-Luc (InvivoGen). The % inhibition was calculated as 100−{[(luminescence of COI treated well/luminescence of non-COI treated well)/100]×100}. IC50 was calculated by plotting in Xlfit.
as §1, with “1 μM” for “30 nM”
THP1-Dual-WT cells (InvivoGen) were plated into 96-well flat bottom plate at 5×10^4 cells/140 μL/well in triplicate. Cells were then treated with diluted antagonist compounds at 10 μL/well for 1 h, followed by treatment with compounds or 2′3′-cGAMP/lipo mixture for 18 h. The levels of IRF activity were determined using Quanti-luc (InvivoGen) and calculated against IRF activity in DMSO-treated cells. IC50 and CC50 values were calculated using Xlfit.

Chain of STING (Q86WV6 whole entry): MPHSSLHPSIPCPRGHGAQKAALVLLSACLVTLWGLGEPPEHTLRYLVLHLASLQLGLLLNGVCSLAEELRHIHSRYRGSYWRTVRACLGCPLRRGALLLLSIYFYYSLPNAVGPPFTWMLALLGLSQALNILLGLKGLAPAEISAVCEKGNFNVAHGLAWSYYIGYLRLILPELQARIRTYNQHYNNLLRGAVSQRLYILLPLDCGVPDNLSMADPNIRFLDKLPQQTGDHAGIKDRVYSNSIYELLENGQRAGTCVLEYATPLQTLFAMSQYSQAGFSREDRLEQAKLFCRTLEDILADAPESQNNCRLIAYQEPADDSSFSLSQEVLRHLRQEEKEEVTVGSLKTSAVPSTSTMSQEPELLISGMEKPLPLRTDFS

Row | Compound | IC50 (read-out: IC50) | IC50
1 | Clc1nc(Cl)c2c(ncn2CCCCn2cnc3nc(Cl)nc(Cl)c32)n1 [Compound 55, 1,4-bis(2,6-dichloro-7H-purin-7-yl)butane] | 5 to 10 µM | –
2 | COC(=O)C(C)(C)n1cnc2nc(Cl)nc(Cl)c21 [Compound 56, methyl 2-(2,6-dichloro-7H-purin-7-yl)-2-methylpropanoate] | > 20 µM | –
3 | COC(=O)C(CCC(C(=O)OC)n1cnc2nc(Cl)nc(Cl)c21)n1cnc2nc(Cl)nc(Cl)c21 (stereo not drawn) [Compound 57, dimethyl 2,5-bis(2,6-dichloro-7H-purin-7-yl)hexanedioate] | 1 to 5 µM | –
4 | Clc1nc(Cl)c2c(ncn2C/C=C\Cn2cnc3nc(Cl)nc(Cl)c32)n1 [Compound 58, (Z)-1,4-bis(2,6-dichloro-7H-purin-7-yl)but-2-ene] | > 20 µM | –
5 | Cc1nc2nc(Cl)nc(Cl)c2n1CCCCCCCCCCCCn1c(C)nc2nc(Cl)nc(Cl)c21 [Compound 59, 1,12-bis(2,6-dichloro-8-methyl-7H-purin-7-yl)dodecane] | 0.001 to 1 µM | –
6 | COC(=O)CCCCn1c(C)nc2nc(Cl)nc(Cl)c21 [Compound 60, methyl 5-(2,6-dichloro-8-methyl-7H-purin-7-yl)pentanoate] | 5 to 10 µM | –
7 | Cc1nc2nc(Cl)nc(Cl)c2n1CCCCCCCCCCn1c(C)nc2nc(Cl)nc(Cl)c21 [Compound 61, 1,10-bis(2,6-dichloro-8-methyl-7H-purin-7-yl)decane] | 0.001 to 1 µM | –
8 | Cc1nc2nc(Cl)nc(Cl)c2n1CCCCCCO [Compound 62, 6-(2,6-dichloro-8-methyl-7H-purin-7-yl)hexan-1-ol] | 1 to 5 µM | –
9 | Cc1nc2nc(Cl)nc(Cl)c2n1CCCCCCCCn1c(C)nc2nc(Cl)nc(Cl)c21 [Compound 63, 1,8-bis(2,6-dichloro-8-methyl-7H-purin-7-yl)octane] | 0.001 to 1 µM | –
10 | Cc1nc2nc(Cl)nc(Cl)c2n1CCCCn1c(C)nc2nc(Cl)nc(Cl)c21 [Compound 64, 1,4-bis(2,6-dichloro-8-methyl-7H-purin-7-yl)butane] | > 20 µM | –
11 | Cc1nc2nc(Cl)nc(Cl)c2n1CCCCCCCl [Compound 65, 2,6-dichloro-7-(6-chlorohexyl)-8-methyl-7H-purine] | 1 to 5 µM | –
12 | COC(=O)Cn1c(C)nc2nc(Cl)nc(Cl)c21 [Compound 66, methyl 2-(2,6-dichloro-8-methyl-7H-purin-7-yl)acetate] | 1 to 5 µM | –
13 | COc1ccc(Cn2c(C)nc3nc(Cl)nc(Cl)c32)cc1 [Compound 67, 2,6-dichloro-7-(4-methoxybenzyl)-8-methyl-7H-purine] | 1 to 5 µM | –
14 | CC(=O)N1CCC(Cn2cnc3nc(Cl)nc(Cl)c32)CC1 [Compound 68, 1-(4-((2,6-dichloro-7H-purin-7-yl)methyl)piperidin-1-yl)ethan-1-one] | 5 to 10 µM | –
15 | COC(=O)CCCCCCCCCCCCCCCn1c(C)nc2nc(Cl)nc(S(C)(=O)=O)c21 [Compound 69, methyl 16-(2-chloro-8-methyl-6-(methylsulfonyl)-7H-purin-7-yl)hexadecanoate] | 0.001 to 1 µM | –
16 | COC(=O)CCCCCCCCCCCCCCCn1c(C#CC2CC2)nc2nc(Cl)nc(Cl)c21 [Compound 70, methyl 16-(2,6-dichloro-8-(cyclopropylethynyl)-7H-purin-7-yl)hexadecanoate] | 1 to 5 µM | –
17 | COC(=O)CCCCCCCCCCCCCCCn1c(-c2ccccc2)nc2nc(Cl)nc(Cl)c21 [Compound 71, methyl 16-(2,6-dichloro-8-phenyl-7H-purin-7-yl)hexadecanoate] | 1 to 5 µM | –
18 | Cc1nc2nc(Cl)nc(Cl)c2n1CCCCCCCCCCCCCCCC(=O)O [Compound 72, 16-(2,6-dichloro-8-methyl-7H-purin-7-yl)hexadecanoic acid] | 10 to 20 µM | –

Row | Compound | IC50 (read-out: IC50) | IC50
19 | COC(=O)CCCCCCCCCCCCCCCn1c(C)nc2nc(Cl)nc(S(=O)(=O)C(C)C)c21 [Compound 74, methyl 16-(2-chloro-6-(isopropylsulfonyl)-8-methyl-7H-purin-7-yl)hexadecanoate] | 0.001 to 1 µM | –
20 | Cc1nc2nc(Cl)nc(Cl)c2n1CCCCCCCCCCCCCCCCO [Compound 75] | 0.001 to 1 µM | –
21 | Cc1nc2c(Cl)nc(Cl)nc2n1CCCCCCCCCCCCCCCCO [Compound 76, 16-(2,6-dichloro-8-methyl-9H-purin-9-yl)hexadecan-1-ol] | 5 to 10 µM | –
22 | CCCCCCCCCCCCCCCCn1c(C)nc2nc(Cl)nc(Cl)c21 [Compound 77, 2,6-dichloro-7-hexadecyl-8-methyl-7H-purine] | 0.001 to 1 µM | –
23 | CCOC(=O)CCCCCCCCCCCCCCCn1c(C)nc2nc(Cl)nc(Cl)c21 [Compound 78, ethyl 16-(2,6-dichloro-8-methyl-7H-purin-7-yl)hexadecanoate] | 0.001 to 1 µM | –
24 | Cc1nc2nc(Cl)nc(Cl)c2n1CCCCCCCCCCCCCCCC(=O)OC(C)C [Compound 79, isopropyl 16-(2,6-dichloro-8-methyl-7H-purin-7-yl)hexadecanoate] | 0.001 to 1 µM | –
25 | COC(=O)CCCC(=O)N1CNc2nc(Cl)nc(Cl)c21 [Compound 80, methyl 5-(2,6-dichloro-8,9-dihydro-7H-purin-7-yl)-5-oxopentanoate] | > 20 µM | –
26 | Cc1nc2nc(Cl)nc(Cl)c2n1CCCCCCCCCCCCCCCC(=O)OC(C)(C)C [Compound 81, tert-butyl 16-(2,6-dichloro-8-methyl-7H-purin-7-yl)hexadecanoate] | 1 to 5 µM | –
27 | Cc1nc2nc(Cl)nc(Cl)c2n1C [Compound 82, 2,6-dichloro-7,8-dimethyl-7H-purine] | 5 to 10 µM | –
28 | Cc1nc2c(Cl)nc(Cl)nc2n1C [Compound 83, 2,6-dichloro-8,9-dimethyl-9H-purine] | > 20 µM | –
29 | Cc1nc2nc(Cl)nc(Cl)c2n1CCCCCCCCCCCCCCCC(=O)OCCO [Compound 84, 2-hydroxyethyl 16-(2,6-dichloro-8-methyl-7H-purin-7-yl)hexadecanoate] | 1 to 5 µM | –
30 | Cc1nc2nc(Cl)nc(Cl)c2n1CCCCCCCCCCCCCCCC(=O)OCC(O)CO (stereo not drawn) [Compound 85, 2,3-dihydroxypropyl 16-(2,6-dichloro-8-methyl-7H-purin-7-yl)hexadecanoate] | 1 to 5 µM | –
31 | Cc1nc2nc(Cl)nc(Cl)c2n1CCCCCCCCCCCCCCCC(=O)N1CCNCC1 [Compound 87, 16-(2,6-dichloro-8-methyl-7H-purin-7-yl)-1-(piperazin-1-yl)hexadecan-1-one] | 10 to 20 µM | –
32 | O=P(O)(O)OCCCCCCCCCCCCCCCCn1cnc2nc(Cl)nc(Cl)c21 [Compound 88, 16-(2,6-dichloro-7H-purin-7-yl)hexadecyl dihydrogen phosphate] | > 20 µM | –
33 | COC(=O)CCCCCCCCCCCCCCCn1c(C(C)C)nc2nc(Cl)nc(Cl)c21 [Compound 89, methyl 16-(2,6-dichloro-8-isopropyl-7H-purin-7-yl)hexadecanoate] | 0.001 to 1 µM | –
34 | N#CCCOP(O)(=S)OCCCCCCCCCCCCCCCCn1cnc2nc(Cl)nc(Cl)c21 (stereo not drawn) [Compound 90, O-(2-cyanoethyl)O-(16-(2,6-dichloro-7H-purin-7-yl)hexadecyl) O-hydrogen phosphorothioate] | – | 5 to 10 µM
35 | COC(=O)CCCCCCCCCCCCCCCn1c(CCl)nc2nc(Cl)nc(Cl)c21 [Compound 91, Methyl 16-(2,6-dichloro-8-(chloromethyl)-7H-purin-7-yl)hexadecanoate] | 0.001 to 1 µM | –
36 | COCc1nc2nc(Cl)nc(Cl)c2n1CCCCCCCCCCCCCCCC(=O)OC [Compound 92, Methyl 16-(2,6-dichloro-8-(methoxymethyl)-7H-purin-7-yl)hexadecanoate] | 0.001 to 1 µM | –
